Assay results as given in paper doi:10.1101/2023.10.20.563248v1 (biorxiv, 2023).

Assays:
Conditions in all cases: 1 µM; inhibitor
[1] = molecular target: FGFR2 (Homo sapiens, UniProt P21802)
[2] = molecular target: SGK2 (Homo sapiens, UniProt Q9HBY8)
[3] = molecular target: RPS6KA4 (Homo sapiens, UniProt O75676)
[4] = molecular target: CLK4 (Homo sapiens, UniProt Q9HAZ1)
[5] = molecular target: MKNK2 (Homo sapiens, UniProt Q9HBH9)
[6] = molecular target: ERBB4 (Homo sapiens, UniProt Q15303)
[7] = molecular target: CDK1/CycB1 (Homo sapiens, UniProt P06493)
[8] = molecular target: TTK (Homo sapiens, UniProt P33981)
[9] = molecular target: NEK4 (Homo sapiens, UniProt P51957)
[10] = molecular target: CK1g3 (Homo sapiens, UniProt Q9Y6M4)
[11] = molecular target: CDK6/CycD3 (Homo sapiens, UniProt Q00534)
[12] = molecular target: GRK7 (Homo sapiens, UniProt Q8WTQ7)
[13] = molecular target: EPHA4 (Homo sapiens, UniProt P54764)
[14] = molecular target: ACVR2A (Homo sapiens, UniProt P27037)
[15] = molecular target: PKCz (Homo sapiens, UniProt Q05513)
[16] = molecular target: VEGFR2 (Homo sapiens, UniProt P35968)
Sequence of VEGFR2 (P35968 whole entry): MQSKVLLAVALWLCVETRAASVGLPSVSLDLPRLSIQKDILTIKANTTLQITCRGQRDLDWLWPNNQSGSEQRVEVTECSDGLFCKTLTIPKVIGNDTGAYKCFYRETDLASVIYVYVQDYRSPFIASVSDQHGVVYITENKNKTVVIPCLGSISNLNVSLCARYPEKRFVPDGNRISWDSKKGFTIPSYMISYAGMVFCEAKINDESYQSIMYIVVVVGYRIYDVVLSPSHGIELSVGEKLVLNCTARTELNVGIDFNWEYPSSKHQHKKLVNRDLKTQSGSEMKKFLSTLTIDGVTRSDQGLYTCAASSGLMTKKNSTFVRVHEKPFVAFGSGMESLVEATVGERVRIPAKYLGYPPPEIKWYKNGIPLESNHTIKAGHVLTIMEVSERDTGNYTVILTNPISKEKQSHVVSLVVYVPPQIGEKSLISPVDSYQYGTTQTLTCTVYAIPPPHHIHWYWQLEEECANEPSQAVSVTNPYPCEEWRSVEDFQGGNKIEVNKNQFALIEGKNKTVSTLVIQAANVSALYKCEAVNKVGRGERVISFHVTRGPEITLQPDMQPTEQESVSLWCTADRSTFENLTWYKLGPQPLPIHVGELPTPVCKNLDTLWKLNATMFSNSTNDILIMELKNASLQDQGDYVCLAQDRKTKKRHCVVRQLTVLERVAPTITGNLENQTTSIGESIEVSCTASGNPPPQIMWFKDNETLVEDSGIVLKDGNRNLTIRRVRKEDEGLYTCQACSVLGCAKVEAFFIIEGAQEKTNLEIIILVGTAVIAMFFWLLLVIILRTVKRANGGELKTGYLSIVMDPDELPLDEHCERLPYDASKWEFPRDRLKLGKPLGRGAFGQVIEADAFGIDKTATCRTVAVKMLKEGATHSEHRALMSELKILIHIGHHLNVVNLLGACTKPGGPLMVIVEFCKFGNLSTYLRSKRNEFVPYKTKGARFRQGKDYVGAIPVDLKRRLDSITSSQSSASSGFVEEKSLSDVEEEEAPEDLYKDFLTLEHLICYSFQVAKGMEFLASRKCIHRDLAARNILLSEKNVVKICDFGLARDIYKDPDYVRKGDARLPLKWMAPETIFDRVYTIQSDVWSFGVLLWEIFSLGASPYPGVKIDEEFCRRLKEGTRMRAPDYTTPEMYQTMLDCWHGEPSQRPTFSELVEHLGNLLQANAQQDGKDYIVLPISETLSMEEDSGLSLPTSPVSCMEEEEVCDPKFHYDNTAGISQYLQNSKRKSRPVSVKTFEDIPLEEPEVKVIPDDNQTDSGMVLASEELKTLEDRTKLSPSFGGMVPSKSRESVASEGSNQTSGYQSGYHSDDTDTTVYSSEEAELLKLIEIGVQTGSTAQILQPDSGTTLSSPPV

[17] = molecular target: CLK3 (Homo sapiens, UniProt P49761)
Sequence of CLK3 (P49761 whole entry): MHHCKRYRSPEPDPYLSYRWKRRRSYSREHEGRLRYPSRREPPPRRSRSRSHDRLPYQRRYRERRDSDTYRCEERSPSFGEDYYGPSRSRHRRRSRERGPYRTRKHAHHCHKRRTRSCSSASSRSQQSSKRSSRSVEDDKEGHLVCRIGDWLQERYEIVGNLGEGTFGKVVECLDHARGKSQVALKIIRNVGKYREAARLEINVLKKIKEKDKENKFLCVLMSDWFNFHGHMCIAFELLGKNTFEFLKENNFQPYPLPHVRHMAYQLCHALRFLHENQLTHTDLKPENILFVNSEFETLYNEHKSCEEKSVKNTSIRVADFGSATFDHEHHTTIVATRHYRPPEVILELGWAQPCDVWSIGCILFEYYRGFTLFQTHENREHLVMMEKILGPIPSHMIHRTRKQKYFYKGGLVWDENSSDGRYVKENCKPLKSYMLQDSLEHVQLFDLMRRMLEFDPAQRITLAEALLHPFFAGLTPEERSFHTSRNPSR

[18] = molecular target: ITK (Homo sapiens, UniProt Q08881)
[19] = molecular target: RIPK5 (Homo sapiens, UniProt Q6XUX3)
[20] = molecular target: CK1e (Homo sapiens, UniProt P49674)
[21] = molecular target: NIK (Homo sapiens, UniProt Q99558)
Sequence of NIK (Q99558 whole entry): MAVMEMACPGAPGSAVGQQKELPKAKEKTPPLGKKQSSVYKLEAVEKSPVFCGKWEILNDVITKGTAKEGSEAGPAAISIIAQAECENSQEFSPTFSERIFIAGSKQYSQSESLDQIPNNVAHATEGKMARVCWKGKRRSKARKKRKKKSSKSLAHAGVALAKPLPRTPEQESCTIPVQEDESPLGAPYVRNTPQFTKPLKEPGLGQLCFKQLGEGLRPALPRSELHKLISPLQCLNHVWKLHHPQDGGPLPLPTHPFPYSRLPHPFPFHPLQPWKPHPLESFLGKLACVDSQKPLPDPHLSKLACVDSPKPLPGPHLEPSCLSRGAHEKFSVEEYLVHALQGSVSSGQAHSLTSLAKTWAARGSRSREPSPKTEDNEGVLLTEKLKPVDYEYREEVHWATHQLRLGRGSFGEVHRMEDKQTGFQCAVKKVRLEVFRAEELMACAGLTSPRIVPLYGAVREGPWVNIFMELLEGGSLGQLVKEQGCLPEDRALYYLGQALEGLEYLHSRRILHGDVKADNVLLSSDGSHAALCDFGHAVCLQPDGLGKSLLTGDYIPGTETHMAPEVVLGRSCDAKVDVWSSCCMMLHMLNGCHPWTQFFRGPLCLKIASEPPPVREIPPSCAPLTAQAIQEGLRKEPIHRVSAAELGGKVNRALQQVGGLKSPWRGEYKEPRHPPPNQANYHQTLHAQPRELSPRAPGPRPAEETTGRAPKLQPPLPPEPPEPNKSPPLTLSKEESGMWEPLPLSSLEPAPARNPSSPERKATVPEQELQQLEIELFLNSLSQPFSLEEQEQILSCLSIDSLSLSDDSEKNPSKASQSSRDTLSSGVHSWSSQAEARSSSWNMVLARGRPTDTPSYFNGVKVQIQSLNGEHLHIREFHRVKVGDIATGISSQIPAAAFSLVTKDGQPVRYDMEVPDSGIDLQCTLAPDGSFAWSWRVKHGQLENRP

[22] = molecular target: DAPK3 (Homo sapiens, UniProt O43293)
[23] = molecular target: HIPK1 (Homo sapiens, UniProt Q86Z02)
[24] = molecular target: PAK1 (Homo sapiens, UniProt Q13153)
Sequence of PAK1 (Q13153 whole entry): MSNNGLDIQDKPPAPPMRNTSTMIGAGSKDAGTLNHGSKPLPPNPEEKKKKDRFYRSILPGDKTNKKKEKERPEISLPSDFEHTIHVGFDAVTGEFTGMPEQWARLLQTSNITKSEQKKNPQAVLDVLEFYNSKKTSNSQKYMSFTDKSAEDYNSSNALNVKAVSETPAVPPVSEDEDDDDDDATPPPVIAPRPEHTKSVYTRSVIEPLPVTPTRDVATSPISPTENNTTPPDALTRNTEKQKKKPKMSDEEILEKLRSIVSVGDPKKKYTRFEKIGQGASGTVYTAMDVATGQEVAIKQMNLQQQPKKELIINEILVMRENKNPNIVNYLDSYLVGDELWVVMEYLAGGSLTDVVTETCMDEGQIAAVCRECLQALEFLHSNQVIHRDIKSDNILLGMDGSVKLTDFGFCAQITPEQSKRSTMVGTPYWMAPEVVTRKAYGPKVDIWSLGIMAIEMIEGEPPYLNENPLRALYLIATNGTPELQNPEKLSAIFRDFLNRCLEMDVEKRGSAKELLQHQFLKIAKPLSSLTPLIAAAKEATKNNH

[25] = molecular target: EGFR (Homo sapiens, UniProt P00533)
[26] = molecular target: STK17A (Homo sapiens, UniProt Q9UEE5)
Sequence of STK17A (Q9UEE5 whole entry): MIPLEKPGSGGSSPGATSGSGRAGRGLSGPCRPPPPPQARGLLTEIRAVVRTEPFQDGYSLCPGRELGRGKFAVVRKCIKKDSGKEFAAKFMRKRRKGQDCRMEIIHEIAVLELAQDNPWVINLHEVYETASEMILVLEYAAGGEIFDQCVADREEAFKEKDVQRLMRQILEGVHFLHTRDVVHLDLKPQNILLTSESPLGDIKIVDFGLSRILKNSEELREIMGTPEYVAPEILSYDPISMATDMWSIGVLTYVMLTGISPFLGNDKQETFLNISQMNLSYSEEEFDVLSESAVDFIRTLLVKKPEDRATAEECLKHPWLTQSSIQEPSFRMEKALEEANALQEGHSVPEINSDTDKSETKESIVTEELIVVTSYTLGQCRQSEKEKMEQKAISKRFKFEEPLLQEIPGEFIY

[27] = molecular target: CAMK2A (Homo sapiens, UniProt Q9UQM7)
[28] = molecular target: MAP3K9 (Homo sapiens, UniProt P80192)
[29] = molecular target: PKA (Homo sapiens, UniProt P17612)
[30] = molecular target: CK2a1 (Homo sapiens, UniProt P68400)
[31] = molecular target: DNAPK (Homo sapiens, UniProt P78527)

Sequence of RPS6KA4 (O75676 whole entry): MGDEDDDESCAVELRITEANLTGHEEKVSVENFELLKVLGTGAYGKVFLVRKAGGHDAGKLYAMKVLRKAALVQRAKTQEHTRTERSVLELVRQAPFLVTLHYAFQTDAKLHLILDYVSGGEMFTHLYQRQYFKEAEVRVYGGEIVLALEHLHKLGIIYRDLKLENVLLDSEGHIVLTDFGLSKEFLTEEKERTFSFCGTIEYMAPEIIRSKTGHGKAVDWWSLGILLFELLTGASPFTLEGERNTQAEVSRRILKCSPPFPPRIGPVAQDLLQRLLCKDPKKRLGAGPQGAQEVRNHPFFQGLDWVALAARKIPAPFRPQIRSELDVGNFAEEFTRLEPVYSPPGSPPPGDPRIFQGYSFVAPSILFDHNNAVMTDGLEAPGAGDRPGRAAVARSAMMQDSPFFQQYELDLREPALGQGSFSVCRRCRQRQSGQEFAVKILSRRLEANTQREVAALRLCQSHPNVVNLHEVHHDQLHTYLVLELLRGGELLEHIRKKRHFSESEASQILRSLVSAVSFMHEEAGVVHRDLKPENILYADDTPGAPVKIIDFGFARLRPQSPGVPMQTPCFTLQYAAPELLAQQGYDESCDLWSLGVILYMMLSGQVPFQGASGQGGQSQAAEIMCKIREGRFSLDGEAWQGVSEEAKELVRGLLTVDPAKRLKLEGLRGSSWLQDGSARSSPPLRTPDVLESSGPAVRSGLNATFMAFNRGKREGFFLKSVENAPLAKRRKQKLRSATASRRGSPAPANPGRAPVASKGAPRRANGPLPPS
Sequence of CLK4 (Q9HAZ1 whole entry): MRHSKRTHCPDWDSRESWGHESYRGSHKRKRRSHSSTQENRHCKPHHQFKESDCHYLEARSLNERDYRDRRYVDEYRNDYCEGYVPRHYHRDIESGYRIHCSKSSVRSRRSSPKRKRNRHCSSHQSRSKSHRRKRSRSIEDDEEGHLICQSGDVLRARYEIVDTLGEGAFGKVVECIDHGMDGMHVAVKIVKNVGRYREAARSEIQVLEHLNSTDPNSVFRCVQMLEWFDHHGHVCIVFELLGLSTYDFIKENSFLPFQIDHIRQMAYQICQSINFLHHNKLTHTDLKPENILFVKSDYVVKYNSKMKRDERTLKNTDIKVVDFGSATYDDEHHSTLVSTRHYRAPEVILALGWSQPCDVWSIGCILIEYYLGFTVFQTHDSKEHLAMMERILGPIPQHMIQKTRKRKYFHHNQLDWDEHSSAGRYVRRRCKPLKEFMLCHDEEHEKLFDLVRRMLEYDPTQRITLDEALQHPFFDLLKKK

- 21c Remaining activity, percent of control [%] [1]: 79.5%
- 21c Remaining activity, percent of control [%] [2]: 105.5%
- 21c Remaining activity, percent of control [%] [3]: 92.5%
- 21c Remaining activity, percent of control [%] [4]: 76.4%
- 21c Remaining activity, percent of control [%] [5]: 105.8%
- 21c Remaining activity, percent of control [%] [6]: 90.7%
- 21c Remaining activity, percent of control [%] [7]: 87.2%
- 21c Remaining activity, percent of control [%] [8]: 97.7%
- 21c Remaining activity, percent of control [%] [9]: 103.8%
- 21c Remaining activity, percent of control [%] [10]: 100.8%
- 21c Remaining activity, percent of control [%] [11]: 85.3%
- 21c Remaining activity, percent of control [%] [12]: 89.2%
- 21c Remaining activity, percent of control [%] [13]: 67.5%
- 21c Remaining activity, percent of control [%] [14]: 95.3%
- 21c Remaining activity, percent of control [%] [15]: 96.3%
- 21c Remaining activity, percent of control [%] [16]: 90.3%
- 21c Remaining activity, percent of control [%] [17]: 88.6%
- 21c Remaining activity, percent of control [%] [18]: 99.7%
- 21c Remaining activity, percent of control [%] [19]: 122.0%
- 21c Remaining activity, percent of control [%] [20]: 103.1%
- 21c Remaining activity, percent of control [%] [21]: 68.5%
- 21c Remaining activity, percent of control [%] [22]: 107.0%
- 21c Remaining activity, percent of control [%] [23]: 97.2%
- 21c Remaining activity, percent of control [%] [24]: 94.9%
- 21c Remaining activity, percent of control [%] [25]: 100.0%
- 21c Remaining activity, percent of control [%] [26]: 103.5%
- 21c Remaining activity, percent of control [%] [27]: 110.6%
- 21c Remaining activity, percent of control [%] [28]: 95.7%
- 21c Remaining activity, percent of control [%] [29]: 96.3%
- 21c Remaining activity, percent of control [%] [30]: 95.5%
- 21c Remaining activity, percent of control [%] [31]: 100.7%
Compound: O=C1NCCCCCNc2nc(c3ccccc3n2)Nc2cc1[nH]n2 [21c, (Z)-3^1H-2,5,11-triaza-1(4,2)-quinazolina-3(3,5)-pyrazolacycloundecaphan-4-one]
